Assay results: patent US8084593B2, “Polynucleotide encoding a TRIM-Cyp polypeptide, compositions thereof, and methods of using same” (The Trustees of Columbia University in the City of New York, priority 2004, dated 2011)
“Also recorded” adds a separate entry of the source.

Key:
[1] = system: N-MLV; experiment: N-MLV / B-MLV GFP vector infection of transduced TE671 cells, FACS; assay type: cell-based, murine leukemia virus; conditions: for N-MLV replication defect (N-tropic restriction by endogenous TRIM5αhu) in cells expressing the construct: TE671 cells, control cells: B-MLV ˜200-fold more infectious than N-MLV
Experimental: (§1) FIGS. 7a-7c. […] (a) TE671 cells expressing the indicated LPCX derived constructs were infected with GFP-expressing B-MLV and N-MLV vectors at multiple doses. Cells were infected in the presence or absence of As2O3 (3 μM). Two days later, the percentage of infected cells was determined by FACS. (b) OMK cells were transduced with MIG (Vect) or with MIG-TRIM5αhu (T5hu) and challenged with DsRed-expressing N-MLV or B-MLV vectors. Two days later, the percentage of infected cells was determined by FACS.
FIGS. 8a-8c. Effect of TRIMStop on TRIM5αhu antiviral activity. (a) TE671-Vector (Vector) cells and TE671-TRIMStop cells were infected with HIV-1NL-GFP (left panel) or with N- and B-MLV (right panel). Two days later, the percentage of infected (GFP expressing) cells was determined by FACS. (b) Total RNA was prepared from TE671-Vector (Vect), TE671-TRIMCyp (TC), and TE671-TRIMStop (TS), and RT-PCR was used to detect endogenous TRIM5α or TRIMCyp/TRIMStop. RT was performed in the presence (+) or absence (−) of reverse transcriptase. (c) 293T cells were transfected with LPCX (Vect), LPCX-TRIMCyp (TC), or LPCX-TRIMStop (TS), and Western blotting was performed using an antibody specific to TRIM5.
Next, we analyzed MLV replication in TE671-TRIM5αrh, TE671-TRIMCyp, and the control TE671-vector cells.

[2] = system: HIV-1; assay type: cell-based, human immunodeficiency virus type 1
Experimental: (§2) HIV-DsRed and HIV-GFP vectors were produced in 293T cells by co-transfection of CSGW or CSRW with p8.9NΔSB (wild type or G89V mutant) and pMD.G, also at 5:5:1 ratio. HIV/Env-/GFP and SIV/Env-/GFP viruses were produced by cotransfection of the wild type or G89V HIV/Env-/GFP plasmids with pMD.G at a 10:1 ratio. All vectors and viruses were harvested 48 h post-transfection, filtered (0.45-μm filter, Pall Acrodisc), aliquoted, and stored at −80° C. Stocks were normalized by reverse transcriptase activity or p24 ELISA (8).
(§3) Infection assays—Cells were assayed by flow cytometry 48 to 72 h post-infection to determine the percentage of cells that were GFP-positive (FL-1) or DsRed-positive (FL-2). Cells transduced with pMIG vectors and infected with HIV-DsRed were gated to limit the analysis to GFP-positive cells.

[3] = system: CAp30 from N-MLV virions; experiment: CA pull-out of N-MLV virions with GST-TRIM5 fusions; assay type: binding, murine leukemia virus; conditions: GST fusion produced in 293T cells, purified virions
[4] = system: N-MLV; experiment: N-MLV DsRed vector challenge of OMK cells transduced with MIG-TRIM5αhu; assay type: cell-based, murine leukemia virus
Experimental: as §1
(§4) We also performed the reciprocal experiment, transducing owl monkey OMK cells with TRIM5αhu and challenging them with MLV or HIV-1.

[5] = system: B-MLV; experiment: B-MLV DsRed vector challenge of OMK cells transduced with MIG-TRIM5αhu; assay type: cell-based, murine leukemia virus
Experimental: as §1, §4

[6] = system: HIV-1; experiment: HIV-1-derived CSRW vector challenge of OMK/MIG and OMK/MIG-T5hu cells; assay type: cell-based, human immunodeficiency virus type 1; conditions: OMK cells expressing TRIM5αhu
Experimental: as §1, §4

[7] = system: CAp30 from B-MLV virions; experiment: CA pull-out of B-MLV virions with GST-TRIM5 fusions; assay type: binding, murine leukemia virus; conditions: GST fusion produced in 293T cells, purified virions
[8] = system: HIV-1NL-GFP; assay type: cell-based, human immunodeficiency virus type 1; conditions: for HIV-1 cDNA synthesis (Southern blot) / HIV-1 infection (GFP-positive cells by FACS): TE671 cells; for HIV-1 cDNA synthesis (Southern blot): 16 h after infection; for HIV-1 infection (GFP-positive cells by FACS): LPCX vectors
Experimental: FIG. 6. […] LPCX-based retroviral vectors were used to transduce the indicated genes into human TE671 cells. Vect, Cyp, TS, TC and T5rh designate, respectively, Vector control, owl monkey CypA, TRIMStop, TRIMCyp, and TRIM5αrh. […] One twentieth of the cells were maintained in culture for another day and used to determine the percentage of GFP-positive cells by FACS (bottom of the figure). Total DNA was extracted from the remainder of the cells 16 h after infection, and 5 μg of each DNA sample was analyzed by Southern blotting. The positions of the linear, 1-LTR, and 2-LTR HIV-1 cDNA species are indicated on the left. “Total” DNA refers to a band specific to all HIV-1 cDNA forms, including the integrated DNA.
We transduced human rhabdomyosarcoma TE671 cells (45) with previously described LPCX vectors (reference 5, see also Example 1) bearing cDNAs for TRIM5αrh, TRIMCyp, or owl monkey CypA. Cells were also transduced with a vector expressing TRIMStop, a truncated version of TRIMCyp lacking the CypA domain (see Example 1). Pools of transduced cells were selected in puromycin and then assessed for susceptibility to infection with HIV-1NL-GFP (32). […] We monitored the percentage of infected (GFP-expressing) cells by fluorescence-activated cell sorting (FACS) and the synthesis of viral cDNA in the infected cells using a Southern blot designed to detect full-length, linear viral cDNA and circular viral cDNAs that form in the nucleus (31, 32, 47).

[9] = system: HIV-1; conditions: OMKMH-CypA-147 cells, pMIG vector, HIV-1 DsRed vector
Experimental: (§5) Generation of stable cell lines—To generate stable RNAi knockdown lines, 1 ml of pMH vector-containing media was pelleted onto OMK cells (1,200 g for 72 min) in 12-well plates. Infection was repeated 24 h later. ntTRIMCyp, TRIMStop and ntCypAOM cDNAs were transduced with either pMIG (OMK and HeLa cells) or pLPCX (TE671 and Rat2 cells). pLPCX-infected cells were selected in 1 μg ml^−1 puromycin.
as §3

[10] = system: HIV-1
Experimental: (§6) FIGS. 3a-3e. […] WT, wild type. HeLa cells (d) or Rat2 cells (e) transduced with the indicated cDNAs were infected with HIV-1.
as §2, §5, §3

[11] = system: SIVMAC239; experiment: SIVMAC239 infection of TE671 cells transduced with cDNAs; assay type: cell-based, simian immunodeficiency virus; conditions: stable TE671 cell lines
Experimental: as §6, §2, §5, §3

[12] = system: HIV-1; remark: listed apart in the source
Experimental: as §6, §5, §3

[13] = system: TRIM5 orthologues (TRIMCyp, TRIM5αrh, TRIM5αhu, TRIMStop, huTRIMStop); experiment: Yeast two-hybrid system, β-galactosidase activity: TRIM5 orthologues; assay type: binding; conditions: LexA / B42 fusions, S. cerevisiae EGY48
Description: (§7) FIGS. 9A-9B. TRIMCyp and TRIMStop both bind TRIM5αhu. (A) Yeast two-hybrid system. […] (B) Binding in mammalian cells. TRIM5αhu was fused to GST.

[14] = target: T1, TRIM5αhu (Homo sapiens, UniProt Q9C035); experiment: GST pull down from cotransfected 293T cells, Western blotting; assay type: binding; conditions: glutathione-Sepharose beads, anti-TRIM5 Western blot
T1 construct: expressed in transfected cells; host or cells: 293T
T1 sequence (Q9C035 whole entry): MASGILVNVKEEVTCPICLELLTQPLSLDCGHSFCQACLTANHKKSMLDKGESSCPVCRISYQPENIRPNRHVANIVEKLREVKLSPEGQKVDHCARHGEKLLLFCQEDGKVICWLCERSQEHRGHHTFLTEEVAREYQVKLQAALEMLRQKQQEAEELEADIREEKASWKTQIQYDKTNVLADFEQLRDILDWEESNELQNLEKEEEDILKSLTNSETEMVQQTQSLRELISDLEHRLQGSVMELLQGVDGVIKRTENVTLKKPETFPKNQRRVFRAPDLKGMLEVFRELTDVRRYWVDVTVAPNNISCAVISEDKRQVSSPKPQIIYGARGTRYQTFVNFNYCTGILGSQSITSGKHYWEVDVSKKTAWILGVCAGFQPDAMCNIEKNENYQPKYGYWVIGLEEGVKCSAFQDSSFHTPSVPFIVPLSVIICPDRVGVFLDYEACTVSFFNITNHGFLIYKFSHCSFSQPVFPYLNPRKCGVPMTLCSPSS
Description: as §7
To investigate TRIM5:TRIMCyp heterodimerization in mammalian cells, we expressed TRIM5αhu in fusion with glutathione-S-transferase (GST) and transfected 293T cells with either GST or GST-TRIM5αhu. These cells were cotransfected with the LPCX plasmid constructs described above that express TRIMCyp or TRIMStop. […] The blot was also probed with an anti-cyclophilin A antibody, confirming the identity of TRIMCyp (FIG. 9b).

[15] = target: HIV-1 CA (Human immunodeficiency virus type 1 group M subtype B, UniProt P12493); conditions: detergent-prepared virion cores, affinity chromatography
Experimental: Retrovirion cores can be liberated from the viral membrane envelope by detergent (54). HIV-1 virion cores were prepared with several different detergents and mixed with recombinant TRIM5 orthologues.

[16] = system: HIV-1 clone NL4-3; experiment: Spreading HIV-1 NL4-3 infection of transduced Jurkat T cells, supernatant reverse transcriptase activity; assay type: cell-based, human immunodeficiency virus type 1; conditions: Jurkat T cells transduced with owl monkey TRIMCyp cDNA
Description: FIG. 13. […] Retroviral vectors were used to transduce human Jurkat T cells with the cDNA encoding owl monkey TRIMCyp. Control cells were transduced with vector lacking the cDNA. Cells were challenged with full infectious HIV-1 clone NL4-3. Supernatant was collected and assessed for viral reverse transcriptase activity (a quantitative measure of the amount of virus produced in the culture).

[17] = target: HIV-1 Gag (Human immunodeficiency virus type 1 group M subtype B, UniProt P12493); conditions: LexA / B42 fusions, S. cerevisiae EGY48
Experimental: (A) Yeast two-hybrid system. […] Pairs of fused LexA and B42 expression plasmids were transformed into Saccharomyces cerevisiae strain EGY48. For each transformant, β-galactosidase activity for three colonies is reported in Miller units with the standard deviation. (B) Binding in mammalian cells.
Fusions of these proteins with LexA and/or B42 were constructed, and the interactions between fusion proteins were analyzed using a previously described system (37) in which reporter gene β-galactosidase activity was assessed with a quantitative assay (43).

O=[As]O[As]=O (centres unmarked) [As2O3]
enhancement of infectivity in cells expressing TRIM5αrh or TRIMCyp ([1]; TE671-TRIM5αrh and TE671-TRIMCyp, As2O3 3 μM): no longer enhanced infectivity
increase of N-MLV infectivity ([1]; control TE671 cells, As2O3 3 μM): ≥ 10 fold

C/C=C/C[C@@H](C)[C@@H](O)[C@H]1C(=O)N[C@@H](CC)C(=O)N(C)CC(=O)N(C)[C@@H]([C@@H](C)CC)C(=O)N[C@@H](C(C)C)C(=O)N(C)[C@@H](CC(C)C)C(=O)N[C@@H](C)C(=O)N[C@H](C)C(=O)N(C)[C@@H](CC(C)C)C(=O)N(C)[C@@H](CC(C)C)C(=O)N(C)[C@@H](C(C)C)C(=O)N1C [MeIle^4-CsA]
HIV-1 infection of OMK cells on drug treatment of target cells [2]: permits HIV-1 to infect OMK cells at an efficiency similar to that of SIV

TRIM5 lacking the SPRY domain: GST fusion with human TRIM5 lacking the SPRY domain
association of CAp30 from N-MLV virions [3]: did not associate

TRIM5αhu: human TRIM5α; in Example 3 produced as a GST-fusion protein in 293T cells
restrictive effect on the replication of N-MLV [4]: approximately twofold
effect on B-MLV [5]: no effect
restriction of HIV-1 compared with control cells [6]: similar
association of CAp30 from N-MLV virions [3]: associated
association of CAp30 from B-MLV virions [7]: did not associate

TRIM5αrh: alpha isoform of rhesus macaque TRIM5 [reference compound]
HIV-1 cDNA synthesis (Southern blot) [8]: inhibited HIV-1 cDNA synthesis
HIV-1 infection (GFP-positive cells by FACS) [8]: inhibited HIV-1 infection of TE671 cells
N-MLV replication defect (N-tropic restriction by endogenous TRIM5αhu) in cells expressing the construct [1]: about 20 fold

TRIMCyp: owl monkey TRIM5-CypA fusion protein, 54-kD, SEQ ID NO:4; ntTRIMCyp is its RNAi-resistant cDNA with silent mutations
HIV-1 restriction after transduction of RNAi-resistant cDNA [9]: restricted HIV-1
HIV-1 infection / titre in cells expressing the cDNA [10]: highly resistant to HIV-1 infection
SIVMAC239 infection in cells expressing the cDNA [11]: unaffected
HIV-1 restriction in transduced HeLa cells ([12]; pMIG vector): exhibited the same restriction
HIV-1 restriction in non-primate cells ([12]; rat fibroblasts (Rat2)): functional
efficiency of inhibition of HIV-1 replication relative to TRIM5αrh [8]: roughly fivefold more efficiently than TRIM5αrh
HIV-1 cDNA synthesis (Southern blot) [8]: inhibited HIV-1 cDNA synthesis
HIV-1 infection (GFP-positive cells by FACS) [8]: inhibited HIV-1 infection of TE671 cells
N-MLV replication defect (N-tropic restriction by endogenous TRIM5αhu) in cells expressing the construct [1]: fully abrogated
interaction with TRIM5 orthologues [13]: interacted equally well; also recorded: associates with human TRIM5-α
association with GST-TRIM5αhu [14]: associated with TRIM5αhu
association of HIV-1 CA with TRIM5 orthologue [15]: associated
protection of human T cells from spreading HIV-1 infection [16]: protected from a spreading, cytopathic HIV-1 infection
interaction with HIV-1 Gag [17]: interacted equally well

sanglifehrin
HIV-1 infection of OMK cells on drug treatment of target cells [2]: permits HIV-1 to infect OMK cells at an efficiency similar to that of SIV

B1: TRIMStop: construct in which TRIMCyp has been truncated with a stop codon replacing the first codon of the CypA domain (protein)
chain: MASRILVNIKEEVTCPICLELLTEPLSLDCGHSFCQACITANHKKSMPHQGERSCPLCRISYSSENLRPNRHLVNIVERLREVMLSPEEGQKVDHCAHHGEKLVLFCQQDGNVICWLCERSQEHRGHQTFLVEEVAQKYREKLQVALEMMRQKQKDAEKLEADVREEQASWKIQIQNDKTNIMAEFKKRRDILDCEESKELQNLEKEEKNILKRLVQSENDMVLQTQSVRVLISDLEHRLQGSVMELLQGVDGVIKRIEKVTLQNPKTFLNEKRRIFQTPDLKGTLQVFKEPTEVQRYWDAAAWDLVASA
HIV-1 infection / titre in cells expressing the cDNA [10]: no effect on HIV-1 titre
N-MLV replication defect (N-tropic restriction by endogenous TRIM5αhu) in cells expressing the construct [1]: did not affect the capacity of TE671 cells to restrict N-MLV replication
interaction with TRIM5 orthologues [13]: as competent as TRIMCyp
association with GST-TRIM5αhu [14]: associated with TRIM5αhu
interaction with HIV-1 Gag [17]: not able to interact with Gag
